From publication PMC12250965, “Design and Synthesis of Sulfonium and Selenonium Derivatives Bearing 3′,5′-O-Benzylidene Acetal Side Chain Structure as Potent α-Glucosidase Inhibitors” (Molecules, 2025) come the findings set out here.

Data set [1] deals with rat intestinal maltase. Nature of the data set: In vitro α-glucosidase inhibition assay, rat intestinal maltase. It is filed as biochemical. Particulars: rat small intestinal brush border membrane vesicles; maltose substrate; mean ± SD (n = 3); read-out: IC50 against maltase. On the procedure: (§1) The testing method previously described was modified and used. Thus, rat small intestinal brush border membrane vesicles were first prepared, and its suspension in 0.1 M maleate buffer (pH = 6.0) was used as small intestinal α-glucosidases of maltase and sucrase. A test compound was dissolved in dimethylsulfoxide (DMSO), and the resulting solution was diluted with 0.1 M maleate buffer to prepare the test compound solution (concentration of DMSO: 10%). The substrate solution in maleate buffer ([…], 50 μL), a test compound solution (25 μL), and the enzyme solution (25 μL) were mixed and incubated at 37 °C for 30 min. After incubation, the solution was immediately heated by boiling water for 2 min to stop the reaction, and the solution was mixed with water (150 μL). Glucose concentration was determined by the glucose-oxidase method. […] The IC50 value was determined graphically by a plot of percent inhibition versus log of the test compound.

The target in data set [2] is T1, rat intestinal sucrase (Rattus norvegicus, UniProt P23739).
T1 construct: rat small intestinal brush border membrane vesicles were first prepared; from tissue; host or cells: rat small intestine, brush border membrane vesicles
The data set can be described thus: In vitro α-glucosidase inhibition assay, rat intestinal sucrase. It is filed as biochemical. The method, then:
as §1

Data set [3] deals with rat intestinal maltase. The data set can be described thus: Inhibition-kinetic study (Lineweaver–Burk), maltase. Format: biochemical. On the procedure: (§2) In order to explore the inhibitory mechanism of the α-glucosidase by this family of compounds, enzyme kinetic assays were conducted on 20a, 20c, and 10, followed by a detailed kinetic analysis using the Lineweaver–Burk plots. (Figure 3) The small intestinal brush border membrane vesicles were incubated with varying concentrations of maltose (3.27 mg/mL) for maltase assays and sucrose (52.37 mg/mL) for sucrase assays.
(§3) For kinetic analyses of maltase and sucrase by compounds (20a, 20c, and 10), the enzyme and test samples (1.0 mg/mL for maltase and 0.2 mg/mL for sucrase) were incubated with increasing concentrations of maltose (2.5, 5, 10, 20, 50, 100 μM) and sucrose (5, 10, 20, 50, 100, 1000 μM) at 37 °C for 30 min. The tube was immediately immersed in boiling water for 2 min to stop the reaction, then cooled with water. The glucose concentration was determined by the glucose-oxidase method. […] The Lineweaver–Burk equation follows as: 1/V=Km/Vmax×[…]
(§4) Ki values for each inhibitor were determined by the equation: Ki=[I]×Km/[[…]−Km]

Data set [4] deals with T1, rat intestinal sucrase. Nature of the data set: Inhibition-kinetic study (Lineweaver–Burk), sucrase. It is filed as biochemical. The method, then:
as §2, §3, §4

Data set [5] deals with HELF, a human embryonic lung fibroblast cell line. The data set can be described thus: MTT cytotoxicity assay on HELF cells. It is filed as cell-based. To be noted: different cell lines. On the procedure:
The cytotoxicity of selected sulfonium salts (20a, 20c, and 10) was then evaluated via the 3-[4,5-dimethylthiazol-2-yl]-2,5-diphenyl-tetrazolium bromide (MTT) assay against different cell lines.
Briefly, the HELF-adherent cells were cultured in a 96-well plate overnight in a CO2 environment at 37 °C. Supernatant was removed, and 100 μL serially diluted compounds with complete medium DMEM supplemented with 10% (v/v) fetal bovine serum, penicillin (100 units/mL), and streptomycin (100 μg/mL) were added to each well. After the incubation, the culture medium was aspirated carefully, and 50 μL of MTT solution (2mg/mL PBS) was added to each well and further incubated for 4h. After this, MTT solution was aspirated, and cells were PBS-washed once, and 100 μL of DMSO was added to dissolve the blue insoluble MTT formazan produced by the action of mitochondrial dehydrogenase. The plate was agitated at room temperature for 15 min and then read at 570 nm by using a microplate reader. The percentage of viable cells was calculated as the relative ratio of optical densities.

Another data set deals with sucrose-loaded mice. Nature of the data set: Sucrose loading test (hypoglycemic effect). It is filed as in vivo, ICR mice. To be noted: sucrose loading […] p.o. On the procedure:
Research has shown a strong association between the 2 h postprandial blood glucose level and the risk of cardiovascular events, diabetic microvascular complications such as retinopathy, and the progression of macrovascular diseases. […] Considering this underlying pathological process, α-glucosidase inhibitors, which efficiently regulate postprandial glucose fluctuations, hold significant therapeutic promise for alleviating diabetes-related complications. […] Subsequently, doses were reduced to 1.0 mg/kg.
(§5) The animal experimental protocols in this study were approved by the Experimental Animal Center of Shanghai Institute of Materia Medica (Shanghai, China). Male ICR (Institute of Cancer Research) mice (29−33 g) after an overnight fast were used for acute maltose and sucrose loading tests. In the maltose loading test, maltose (2.0 mpk of body weight) and the inhibitors and voglibose were dissolved in distillation−distillation water and administered to the mice via a stomach tube. A control group was loaded with distillation−distillation water. In the sucrose loading test, sucrose (2.5 g/kg of body weight) and the inhibitor miglitol were dissolved in distillation−distillation water and administered to the mice via a stomach tube. A control group was loaded with distillation−distillation water. Blood samples for glucose measurements were obtained from the tail vein at 0, 15, 30, 60, and 120 min after maltose and sucrose loading. The blood glucose levels were measured by a portable kit, StatStrip Xpress (Nova Biomedical Co., Ltd., Waltham, MA, USA). The AUC over was calculated by the trapezoidal method.

The next data set has as its system maltose-loaded mice. Nature of the data set: Maltose loading test (hypoglycemic effect). To be noted: maltose loading 2.0 g/kg, 1.0 mpk. It is filed as in vivo, ICR mice. The method, then: A maltose loading test on compounds 10, 20c, neoponkoranol, and positive control (voglibose) was conducted to further evaluate their in vivo hypoglycemic effects against maltase.
as §5, with “In the maltose loading test, maltose (2.0 mpk of body weight) and the inhibitors and voglibose were dissolved in distillation−distillation water and administered to the mice via a stomach tube.” left out

T1 sequence (P23739 whole entry): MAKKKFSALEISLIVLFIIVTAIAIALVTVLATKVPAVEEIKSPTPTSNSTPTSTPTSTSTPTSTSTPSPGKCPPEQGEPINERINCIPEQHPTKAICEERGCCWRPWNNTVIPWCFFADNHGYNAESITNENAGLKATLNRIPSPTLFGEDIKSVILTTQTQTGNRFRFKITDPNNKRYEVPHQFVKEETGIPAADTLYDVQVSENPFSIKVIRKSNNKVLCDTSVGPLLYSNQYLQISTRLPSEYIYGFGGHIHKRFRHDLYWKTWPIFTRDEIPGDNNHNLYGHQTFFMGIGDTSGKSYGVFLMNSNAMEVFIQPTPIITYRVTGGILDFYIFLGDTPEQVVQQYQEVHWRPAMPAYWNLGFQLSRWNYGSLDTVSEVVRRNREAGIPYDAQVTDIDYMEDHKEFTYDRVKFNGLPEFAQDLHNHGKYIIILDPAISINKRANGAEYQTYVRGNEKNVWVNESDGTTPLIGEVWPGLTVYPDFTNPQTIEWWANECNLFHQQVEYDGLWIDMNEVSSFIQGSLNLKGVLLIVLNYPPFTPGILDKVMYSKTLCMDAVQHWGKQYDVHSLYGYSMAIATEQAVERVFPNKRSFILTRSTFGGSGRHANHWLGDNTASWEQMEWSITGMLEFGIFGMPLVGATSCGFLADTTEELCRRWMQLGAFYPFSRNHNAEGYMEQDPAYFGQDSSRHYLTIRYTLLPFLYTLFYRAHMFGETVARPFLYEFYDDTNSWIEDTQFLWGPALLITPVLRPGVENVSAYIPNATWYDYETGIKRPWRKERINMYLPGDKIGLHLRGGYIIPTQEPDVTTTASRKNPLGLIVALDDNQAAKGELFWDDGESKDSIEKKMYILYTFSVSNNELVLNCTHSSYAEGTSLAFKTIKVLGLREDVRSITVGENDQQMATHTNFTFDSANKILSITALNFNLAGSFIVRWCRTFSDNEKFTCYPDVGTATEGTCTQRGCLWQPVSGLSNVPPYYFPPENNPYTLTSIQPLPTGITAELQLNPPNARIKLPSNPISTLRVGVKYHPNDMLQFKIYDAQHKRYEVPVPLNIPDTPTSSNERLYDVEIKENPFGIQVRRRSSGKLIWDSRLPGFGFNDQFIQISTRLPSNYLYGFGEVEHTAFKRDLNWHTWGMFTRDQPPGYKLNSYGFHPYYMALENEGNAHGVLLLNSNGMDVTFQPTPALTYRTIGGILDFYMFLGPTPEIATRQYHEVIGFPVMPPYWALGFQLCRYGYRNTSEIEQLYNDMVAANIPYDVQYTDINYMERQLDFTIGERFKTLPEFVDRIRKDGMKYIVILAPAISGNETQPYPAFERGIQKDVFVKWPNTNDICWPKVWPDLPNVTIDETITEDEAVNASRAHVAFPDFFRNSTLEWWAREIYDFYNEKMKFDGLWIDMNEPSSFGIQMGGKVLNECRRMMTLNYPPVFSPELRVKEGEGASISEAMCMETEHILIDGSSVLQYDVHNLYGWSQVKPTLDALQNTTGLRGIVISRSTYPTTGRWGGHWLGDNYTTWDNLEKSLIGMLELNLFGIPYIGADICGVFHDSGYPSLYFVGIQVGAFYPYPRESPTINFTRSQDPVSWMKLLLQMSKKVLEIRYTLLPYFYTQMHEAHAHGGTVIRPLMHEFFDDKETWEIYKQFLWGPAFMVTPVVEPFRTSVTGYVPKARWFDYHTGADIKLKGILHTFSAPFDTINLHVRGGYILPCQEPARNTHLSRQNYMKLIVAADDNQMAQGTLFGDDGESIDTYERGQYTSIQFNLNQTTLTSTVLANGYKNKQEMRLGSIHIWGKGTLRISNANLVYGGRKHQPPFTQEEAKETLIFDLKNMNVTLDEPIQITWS

Consider `O=[N+]([O-])c1ccc(F)cc1C1OC[C@@H](O)[C@@H]([C@H](O)C[Se@@+]2C[C@@H](O)[C@H](O)[C@H]2CO)O1` (stereo partly drawn) [20j, (1S,2R,3S,4S)-1-((2S)-2-((4S,5R)-2-(5-Fluoro-2-nitrophenyl)-5-hydroxy-1,3-dioxan-4-yl)-2-hydroxyethyl)-3,4-dihydroxy-2-(hydroxymethyl)tetrahydro-1H-selenophen-1-ium chloride], for which the concentration for half-maximal inhibition (IC50) (in general, the concentration needed to halve the response being measured) is 330 ± 80 nM on rat intestinal maltase [1] and 90 ± 30 nM on rat intestinal sucrase [2].

Take `OC[C@@H]1[C@@H](O)[C@H](O)C[Se@+]1C[C@@H](O)[C@H]1OC(c2ccccc2Br)OC[C@H]1O` (stereo partly drawn) [20k, (1S,2R,3S,4S)-1-((2S)-2-((4S,5R)-2-(2-Bromophenyl)-5-hydroxy-1,3-dioxan-4-yl)-2-hydroxyethyl)-3,4-dihydroxy-2-(hydroxymethyl)tetrahydro-1H-selenophen-1-ium chloride]: the figures for the IC50 on rat intestinal maltase [1] and against rat intestinal sucrase [2] were 530 ± 220 nM and 120 ± 50 nM, respectively.

As to `OC[C@@H]1[C@@H](O)[C@H](O)C[Se@+]1C[C@@H](O)[C@H]1OC(c2cccc(Br)c2)OC[C@H]1O` (stereo partly drawn) [20l, (1S,2R,3S,4S)-1-((2S)-2-((4S,5R)-2-(3-Bromophenyl)-5-hydroxy-1,3-dioxan-4-yl)-2-hydroxyethyl)-3,4-dihydroxy-2-(hydroxymethyl)tetrahydro-1H-selenophen-1-ium chloride], the IC50 on rat intestinal maltase [1] stood at 690 ± 50 nM; against rat intestinal sucrase [2] it was 210 ± 20 nM.

With `OC[C@@H]1[C@@H](O)[C@H](O)C[Se@+]1C[C@@H](O)[C@H]1OC(c2ccc(Br)cc2)OC[C@H]1O` (stereo partly drawn) [20m, (1S,2R,3S,4S)-1-((2S)-2-((4S,5R)-2-(4-Bromophenyl)-5-hydroxy-1,3-dioxan-4-yl)-2-hydroxyethyl)-3,4-dihydroxy-2-(hydroxymethyl)tetrahydro-1H-selenophen-1-ium chloride], the IC50 on rat intestinal maltase [1] was determined as 70 ± 30 nM; against rat intestinal sucrase [2], 200 ± 50 nM.

As to `OC[C@@H]1[C@@H](O)[C@H](O)C[Se@+]1C[C@@H](O)[C@H]1OC(c2ccccc2F)OC[C@H]1O` (stereo partly drawn) [20n, (1S,2R,3S,4S)-1-((2S)-2-((4S,5R)-2-(2-Fluorophenyl)-5-hydroxy-1,3-dioxan-4-yl)-2-hydroxyethyl)-3,4-dihydroxy-2-(hydroxymethyl)tetrahydro-1H-selenophen-1-ium chloride], the concentration for half-maximal inhibition (IC50) was 3750 ± 580 nM at rat intestinal maltase [1] and 200 ± 60 nM against rat intestinal sucrase [2].

For `OC[C@@H]1[C@@H](O)[C@H](O)C[Se@@+]1C[C@@H](O)[C@H]1OC(c2ccccc2I)OC[C@H]1O` (stereo partly drawn) [20o, (1S,2R,3S,4S)-3,4-Dihydroxy-1-((2S)-2-hydroxy-2-((4S,5R)-5-hydroxy-2-(2-iodophenyl)-1,3-dioxan-4-yl)ethyl)-2-(hydroxymethyl)tetrahydro-1H-selenophen-1-ium chloride], the IC50 was determined as 360 ± 70 nM at rat intestinal maltase [1] and 300 ± 110 nM at rat intestinal sucrase [2].

With `N#Cc1ccccc1C1OC[C@@H](O)[C@@H]([C@H](O)C[Se@@+]2C[C@@H](O)[C@H](O)[C@H]2CO)O1` (stereo partly drawn) [20p, (1S,2R,3S,4S)-1-((2S)-2-((4S,5R)-2-(2-Cyanophenyl)-5-hydroxy-1,3-dioxan-4-yl)-2-hydroxyethyl)-3,4-dihydroxy-2-(hydroxymethyl)tetrahydro-1H-selenophen-1-ium chloride], the results for the IC50 at rat intestinal maltase [1] and on rat intestinal sucrase [2] were 820 ± 210 nM and 370 ± 50 nM, respectively.

With `OC[C@@H]1[C@@H](O)[C@H](O)C[Se@@+]1C[C@@H](O)[C@H]1OC(c2cccc3ccccc23)OC[C@H]1O` (stereo partly drawn) [20q, (1S,2R,3S,4S)-3,4-dihydroxy-1-((2S)-2-hydroxy-2-((4S,5R)-5-hydroxy-2-(naphthalen-1-yl)-1,3-dioxan-4-yl)ethyl)-2-(hydroxymethyl)tetrahydro-1H-selenophen-1-ium chloride], the IC50 at rat intestinal maltase [1] came to 920 ± 230 nM; against rat intestinal sucrase [2], 680 ± 140 nM.

In the case of `OC[C@@H]1[C@@H](O)[C@H](O)C[Se@+]1C[C@@H](O)[C@H]1OC(c2ccccc2-c2ccccc2)OC[C@H]1O` (stereo partly drawn) [20r, (1S,2R,3S,4S)-1-((2S)-2-((4S,5R)-2-([1,1′-biphenyl]-2-yl)-5-hydroxy-1,3-dioxan-4-yl)-2-hydroxyethyl)-3,4-dihydroxy-2-(hydroxymethyl)tetrahydro-1H-selenophen-1-ium chloride], the half-inhibitory concentration (IC50) on rat intestinal maltase [1] stood at 2000 ± 520 nM; against rat intestinal sucrase [2], 720 ± 170 nM.

`O=[N+]([O-])c1ccccc1C1OC[C@@H](O)[C@@H]([C@H](O)C[S@@+]2C[C@@H](O)[C@H](O)[C@H]2CO)O1` (some centres unmarked) [compound 10]: the “type of inhibition, maltase” value in the data set on rat intestinal maltase [3] (Lineweaver–Burk plots) is reported as “fully competitive”. For the same compound, the “Ki Maltase (Km = 3.0 mM)” value at rat intestinal maltase [3] (small intestinal α-glucosidase, Lineweaver–Burk) is 0.42 µg/mL. Further, the “type of inhibition, sucrase” value on rat intestinal sucrase [4] (Lineweaver–Burk plots) is recorded as “fully competitive”. Also, at rat intestinal sucrase [4] (small intestinal α-glucosidase, Lineweaver–Burk, read-out: Ki Sucrase (Km = 23.56 mM) (converted)), the Ki (commonly a dissociation constant, usually derived from enzyme kinetics or from competition with a known ligand) is 693 nM. Further, the “cytotoxicity (MTT assay)” value in data set [5] is “non-toxic”. For the same compound, the “Declined Rate of Blood Glucose Levels, 15 min” value with sucrose-loaded mice (1.0 mpk) is 41.8%; in the data set on sucrose-loaded mice (10.0 mpk) it was 48.0%; in the data set with maltose-loaded mice (15 min, 1 mg/kg) it was 52.8%. Further, the “Declined Rate of Blood Glucose Levels, 30 min” value in the data set on sucrose-loaded mice (1.0 mpk) is 43.00%; in the data set on sucrose-loaded mice (10.0 mpk) it was 54.6%; with maltose-loaded mice (30 min, 1 mg/kg), 55.0%. The “Declined Rate of Blood Glucose Levels, 60 min” value in the data set on sucrose-loaded mice (1.0 mpk) was determined as 39.1%; in the data set on sucrose-loaded mice (10.0 mpk) it was 52.5%; with maltose-loaded mice (60 min, 1 mg/kg) it was 47.2%. In addition, the entries for the “Declined Rate of AUC” value in the data set with sucrose-loaded mice (1.0 mpk), in the data set with sucrose-loaded mice (10.0 mpk) and in the data set on maltose-loaded mice (AUC) were 35.2%, 46.6% and 43.5%, respectively.
